Patent publication US20070015828A1 (Wyeth, priority 2005, published 2007)
Where two headings read alike, the source gives them in different places.

How the values were obtained:
[1] = Solution Stability in aqueous solutions; type: physicochemical; conditions: room temperature, all aqueous solutions (pH 1.4-10.0)
[2] = system: GABA A, Agonist site; test: Receptor binding assay: GABA A agonist site; conditions: Test Compound @ 10 1 M
[3] = system: cortical 5-HT; test: Microdialysis study, rat dorsal lateral frontal cortex; type: in vivo; conditions: male Sprague-Dawley rats, 30 mg/kg, combined with 5-HT1A antagonist WAY-100635 (0.3 mg/kg, s.c.) given 20 min before
Experimental: 1-[2-dimethylamino-1-(4-phenol)ethyl]-cis-1,4-cyclohexandiol was evaluated in a microdialysis study conducted in male Sprague-Dawley rats [M T Taber et al, Differential effects of coadministration of fluoxetine and WAY-100635 on serotonergic neurotransmission in vivo: sensitivity to sequence of injections, Synapse, 2000 October; 38(1):17-26.] This technique can capture the neurochemical effects of compounds in the brains of freely-moving rodents. The effects of 1-[2-dimethylamino-1-(4-phenol)ethyl]-cis-1,4-cyclohexandiol were studied in the rat dorsal lateral frontal cortex, a brain region thought to be involved in etiology and/or treatment of depression. To see whether any effects on serotonin could be observed, the compound (30 mg/kg, sc) was tested in combination with the selective 5-HT1A antagonist, N-[2-[4-(2-methoxyphenyl)-1-piperazinyl] ethyl]-N-(2-pyridinyl)cyclohexanecarboxamide (WAY-100635). […]
• 24 hr post-operative recovery • 3 hr equilibration after probe insertion • 1 hr 40 min baseline • 5-HT1A antagonist N-[2-[4-(2-methoxyphenyl)-1-piperazinyl]ethyl]-N-(2-pyridinyl)cyclohexanecarboxamide [WAY-100635] (0.3 mg/kg, s.c.) given 20 min before 1-[2-dimethylamino-1-(4-phenol)ethyl]-cis-1,4-cyclohexandiol (30 mg/kg, […]) Sample Collection: Samples collected for 3 hr 2 min post-injections Analysis: 5-HT levels quantified by HPLC-ECD

[4] = target: T1, Muscarinic, M3 (hr) (Homo sapiens, UniProt P20309); test: Receptor binding assay: Muscarinic M3; conditions: Test Compound @ 10 1 M
T1 construct: Novascreen (contract assay)
T1 sequence (P20309 whole entry): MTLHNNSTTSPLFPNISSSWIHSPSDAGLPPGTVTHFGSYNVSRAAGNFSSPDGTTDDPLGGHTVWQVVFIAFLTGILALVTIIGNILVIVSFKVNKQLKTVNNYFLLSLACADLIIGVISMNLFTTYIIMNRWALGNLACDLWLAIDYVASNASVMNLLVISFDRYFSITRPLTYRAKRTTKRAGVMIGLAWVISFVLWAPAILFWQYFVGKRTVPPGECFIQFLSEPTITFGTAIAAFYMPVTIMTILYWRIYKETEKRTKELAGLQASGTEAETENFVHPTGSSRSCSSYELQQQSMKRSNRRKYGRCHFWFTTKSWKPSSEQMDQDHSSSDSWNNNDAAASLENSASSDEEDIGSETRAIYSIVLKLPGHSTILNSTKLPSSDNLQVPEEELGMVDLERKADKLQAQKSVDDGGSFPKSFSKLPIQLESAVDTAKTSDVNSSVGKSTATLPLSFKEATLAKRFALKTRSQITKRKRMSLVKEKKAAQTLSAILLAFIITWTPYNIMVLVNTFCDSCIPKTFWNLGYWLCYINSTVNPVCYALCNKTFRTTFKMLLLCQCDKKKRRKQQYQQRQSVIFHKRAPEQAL

[5] = target: T2, Muscarinic, M4 (hr) (Homo sapiens, UniProt P08173); test: Receptor binding assay: Muscarinic M4; conditions: Test Compound @ 10 1 M
T2 construct: Novascreen (contract assay)
T2 sequence (P08173 whole entry): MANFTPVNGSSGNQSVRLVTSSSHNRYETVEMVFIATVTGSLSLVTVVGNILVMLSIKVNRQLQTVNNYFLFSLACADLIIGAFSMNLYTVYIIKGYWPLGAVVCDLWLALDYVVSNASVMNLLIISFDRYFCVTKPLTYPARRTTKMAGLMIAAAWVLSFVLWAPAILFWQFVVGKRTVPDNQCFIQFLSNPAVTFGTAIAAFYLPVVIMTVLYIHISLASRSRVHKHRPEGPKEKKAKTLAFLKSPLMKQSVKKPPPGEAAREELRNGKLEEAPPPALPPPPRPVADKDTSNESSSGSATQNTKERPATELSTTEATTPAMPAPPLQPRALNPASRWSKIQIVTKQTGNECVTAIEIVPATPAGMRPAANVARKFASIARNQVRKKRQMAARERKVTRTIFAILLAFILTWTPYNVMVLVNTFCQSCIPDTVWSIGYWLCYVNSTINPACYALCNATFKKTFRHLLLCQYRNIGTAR

[6] = system: Melatonin; test: Receptor binding assay: Melatonin; conditions: Test Compound @ 10 1 M
[7] = pH-Solubility; type: physicochemical; conditions: free base
[8] = system: GABA A, Benzo, central; test: Receptor binding assay: GABA A benzo central; conditions: Test Compound @ 10 1 M
[9] = target: T3, Muscarinic, MS (hr) (Homo sapiens, UniProt P08912); test: Receptor binding assay: Muscarinic MS; conditions: Test Compound @ 10 1 M
T3 construct: Novascreen (contract assay)
T3 sequence (P08912 whole entry): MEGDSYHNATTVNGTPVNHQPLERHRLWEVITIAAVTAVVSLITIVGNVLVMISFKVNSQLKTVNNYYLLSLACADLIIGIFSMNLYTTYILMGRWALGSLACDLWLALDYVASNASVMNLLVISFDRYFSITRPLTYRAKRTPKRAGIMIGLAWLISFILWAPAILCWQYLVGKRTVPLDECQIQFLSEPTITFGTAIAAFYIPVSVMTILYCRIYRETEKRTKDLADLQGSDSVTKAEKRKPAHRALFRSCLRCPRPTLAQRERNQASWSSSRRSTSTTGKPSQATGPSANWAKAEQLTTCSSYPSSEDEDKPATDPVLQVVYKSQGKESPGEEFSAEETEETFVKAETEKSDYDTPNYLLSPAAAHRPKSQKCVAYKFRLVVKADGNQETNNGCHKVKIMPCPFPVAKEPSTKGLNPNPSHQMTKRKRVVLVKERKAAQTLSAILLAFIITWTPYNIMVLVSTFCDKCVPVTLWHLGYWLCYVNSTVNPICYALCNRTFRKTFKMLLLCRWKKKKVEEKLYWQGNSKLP

[10] = Pharmacokinetics in dog; type: in vivo; conditions: plasma, male dogs
Experimental: Preclinical pharmacokinetics of 1-[2-dimethylamino-1-(4-phenol)ethyl]-cis-1,4-cyclohexandiol was determined after a single 2.5 mg/kg IV bolus and 7.5 mg/kg oral dose in male dogs. […] The oral bioavailability was high (60%).

[11] = target: Serotonin, 5HT6 (hr) (Homo sapiens, UniProt P50406); test: Receptor binding assay: Serotonin 5HT6; conditions: Test Compound @ 10 1 M
Sequence of Serotonin, 5HT6 (hr) (P50406 whole entry): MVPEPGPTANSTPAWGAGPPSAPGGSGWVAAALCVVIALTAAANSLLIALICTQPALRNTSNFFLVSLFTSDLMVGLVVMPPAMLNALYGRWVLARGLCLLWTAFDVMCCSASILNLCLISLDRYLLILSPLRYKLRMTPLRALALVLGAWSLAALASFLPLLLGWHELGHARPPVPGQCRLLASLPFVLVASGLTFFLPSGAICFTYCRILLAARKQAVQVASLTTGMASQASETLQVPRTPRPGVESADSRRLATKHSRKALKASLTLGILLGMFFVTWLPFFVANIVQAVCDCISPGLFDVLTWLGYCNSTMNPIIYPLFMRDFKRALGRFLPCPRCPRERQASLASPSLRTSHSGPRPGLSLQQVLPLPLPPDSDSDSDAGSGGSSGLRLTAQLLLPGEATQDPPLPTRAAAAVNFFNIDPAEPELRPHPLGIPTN

[12] = target: T4, Oxidase, MAO-A, Central (Rattus norvegicus, UniProt P21396); test: Receptor binding assay: Oxidase MAO-A central (first line); conditions: Test Compound @ 10 1 M
T4 construct: Novascreen (contract assay)
T4 sequence (P21396 whole entry): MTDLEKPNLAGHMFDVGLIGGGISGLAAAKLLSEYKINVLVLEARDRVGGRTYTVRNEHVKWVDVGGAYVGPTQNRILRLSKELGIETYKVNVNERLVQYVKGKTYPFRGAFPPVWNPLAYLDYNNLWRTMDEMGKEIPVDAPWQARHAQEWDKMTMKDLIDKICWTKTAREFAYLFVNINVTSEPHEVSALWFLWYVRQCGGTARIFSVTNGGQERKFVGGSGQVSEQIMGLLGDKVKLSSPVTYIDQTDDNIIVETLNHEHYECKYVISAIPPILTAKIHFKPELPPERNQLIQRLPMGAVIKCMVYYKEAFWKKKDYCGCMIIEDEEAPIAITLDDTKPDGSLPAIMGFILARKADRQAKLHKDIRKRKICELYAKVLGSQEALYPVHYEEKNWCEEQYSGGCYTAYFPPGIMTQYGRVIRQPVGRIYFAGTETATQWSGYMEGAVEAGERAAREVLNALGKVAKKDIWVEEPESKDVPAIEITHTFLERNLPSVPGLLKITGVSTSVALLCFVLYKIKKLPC

[13] = system: Serotonin, 5HT2C; test: Receptor binding assay: Serotonin 5HT2C; conditions: Test Compound @ 10 1 M
[14] = system: spinal nerve ligation model of neuropathic pain, tactile allodynia; test: Spinal nerve ligation model of neuropathic pain, tactile allodynia; type: in vivo; conditions: rat, up to 100 mg/kg
Experimental: 1-[2-dimethylamino-1-(4-phenol)ethyl]-cis-1,4-cyclohexandiol was evaluated in two in-vivo animal models for pain, including a Visceral Pain model and a Neuropathic Pain model.
Surgical procedures were performed under 4% isoflurane/O2 anesthesia, delivered via nose cone and maintained at 2.5% for the duration of the surgery. After induction of anesthesia, the incision site was shaved and prepared in a sterile manner. Spinal nerve ligation (SNL) surgery was performed as previously described [Kim, S. H. and Chung, J. M., An experimental model for peripheral neuropathy produced by segmental spinal nerve ligation in the rat, Pain, 50 (1992) 355-63] with the exception that nerve injury was produced by tight ligation of the left L5 spinal nerve. Briefly, a midline incision was made and the L5 transverse process was removed and the nerve was tightly ligated with 6-0 silk suture material and the wound was closed in layers with 4-0 vicryl suture and the skin closed with wound clips.

[15] = system: Dopamine Transporter; test: Dopamine transporter binding assay; conditions: Test Compound @ 10 1 M
[16] = target: T5, Adrenergic, Alpha 2A (h) (Homo sapiens, UniProt P08913); test: Receptor binding assay: Adrenergic Alpha 2A; conditions: Test Compound @ 10 1 M
T5 construct: Novascreen (assay provider)
T5 sequence (P08913 whole entry): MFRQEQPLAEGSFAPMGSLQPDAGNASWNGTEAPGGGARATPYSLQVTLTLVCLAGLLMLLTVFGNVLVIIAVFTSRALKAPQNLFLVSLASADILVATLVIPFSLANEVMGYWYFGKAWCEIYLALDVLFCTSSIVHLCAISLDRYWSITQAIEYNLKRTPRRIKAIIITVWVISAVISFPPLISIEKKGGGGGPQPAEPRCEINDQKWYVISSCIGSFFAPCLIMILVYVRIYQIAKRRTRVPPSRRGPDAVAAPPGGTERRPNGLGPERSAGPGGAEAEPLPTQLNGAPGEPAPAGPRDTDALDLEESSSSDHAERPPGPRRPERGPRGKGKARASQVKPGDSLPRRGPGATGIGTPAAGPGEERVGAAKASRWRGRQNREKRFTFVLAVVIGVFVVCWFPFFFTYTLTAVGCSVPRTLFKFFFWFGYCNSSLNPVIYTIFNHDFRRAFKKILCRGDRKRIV

[17] = system: Nicotinic (a-bungarotoxin insens); type: binding; conditions: Test Compound @ 10 1 M
[18] = system: Histamine, H3; test: Receptor binding assay: Histamine H3; conditions: Test Compound @ 10 1 M
[19] = system: Glutamate, NMDA agonist Site; test: Receptor binding assay: Glutamate NMDA agonist site; conditions: Test Compound @ 10 1 M

For `CN(C)CC(c1ccc(O)cc1)C1(O)CCC(O)CC1` (stereo not drawn) [1-[2-dimethylamino-1-(4-phenol)ethyl]-cis-1,4-cyclohexandiol], the “Solution Stability, time stable” value [1] was “The compound was stable for at least 24 hours”, the “Receptor Binding % Inhibition” value [2] was −16.06% and the “cortical 5-HT levels” value [3] was “Robust elevations”. The inhibition at 10 µM [4] was 0.11%, the inhibition at 10 µM [5] was -3.52% and the “Receptor Binding % Inhibition” value [6] was 11.20%. The pH-Solubility ([7]; Final pH 1.4) was “Final pH 1.4 24.2 mg/ml”, the pH-Solubility ([7]; Final pH 3.99) was “Final pH 3.99 24.1 mg/ml” and the pH-Solubility ([7]; Final pH 5.79) was “Final pH 5.79 26.7 mg/ml”. The pH-Solubility ([7]; Final pH 8.4) was “Final pH 8.4 22.7 mg/ml”, the “Receptor Binding % Inhibition” value [8] was 0.20% and the inhibition at 10 µM [9] was 5.4%. The bioavailability ([10]; 7.5 mg/kg oral vs 2.5 mg/kg IV) was 60%, the clearance ([10]; single 2.5 mg/kg IV bolus) was roughly 7 mL/min/kg and the half-life ([10]; single 2.5 mg/kg IV bolus, read-out: apparent terminal half-life (t1/2) (converted)) was 5.6 h. The Vd ([10]; single 2.5 mg/kg IV bolus, read-out: apparent volume of distribution (VSS)) was 1.9 L/kg, the half-life ([10]; single oral dose of 7.5 mg/kg, read-out: terminal oral half-life (converted)) was 6 h and the inhibition at 10 µM [11] was 17.1%. The inhibition at 10 µM [12] was -0.11%, the “Receptor Binding % Inhibition” value [13] was 10.05% and the “reversal of tactile allodynia” value [14] was “not found to reverse”. For the same compound, the “Receptor Binding % Inhibition” value [15] was 8.49%, the inhibition at 10 µM [16] was 10.4% and the “Receptor Binding % Inhibition” value [17] was −1.07%. For the same compound, the “Receptor Binding % Inhibition” value [18] was 14.00% and the “Receptor Binding % Inhibition” value [19] was −2.99%.
